From patent publication US9920030B2 (priority 2006, dated 2018)
Where two headings read alike, the source gives them in different places.

Experiments:
Format in all cases: in vivo
[1] = test system: Phytophthora infestans (the causal agent of tomato late blight); test: whole plant or invertebrate
[2] = test system: Plasmopara vilicola (the causal agent of grape downy mildew); test: Test A: grape downy mildew, test suspension sprayed on grape seedlings after inoculation, visual disease rating
How it was run: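 Curative spray: spores applied first, plants kept 24 h in saturated air at 20 °C and dried before treatment, then 5 days at 20 °C plus 24 h saturated. Suspension: acetone (3% of volume) in 1:1 acetone/water, 250 ppm Trem 014, sprayed to run-off (200 ppm ≈ 500 g/ha); visual 0–100 control rating.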

[3] = test system: Phytophthora infestans (the causal agent of tomato late blight); test: whole plant or invertebrate; remark: listed apart in the source
[4] = compounds without asterisk (application rate not given), 100 = 100% disease control, 0 = no control relative to the controls

In the case of `Cc1cc(C(F)(F)F)nn1CC(=O)N1CCC(c2nc(C3=NOC(N4C(=O)N(C)C(=O)C(C)(C)C4=O)C3)cs2)CC1` (stereo not shown) [Compound 279], the “Percent Disease Control, Test B” value ([1]; * tested at 40 ppm) is reported as 100%, the “Percent Disease Control, Test A” value ([2]; * tested at 40 ppm) is reported as 100% and the “Percent Disease Control, Test C” value ([3]; * tested at 40 ppm) is reported as 99%.

`Cc1cc(C(F)(F)F)nn1CC(=O)N1CCC(c2nc(CN3C(=O)OC(C)(C)C3=O)cs2)CC1` [Compound 208] was tested, and the “Percent Disease Control, Test B” value [1, 4] was 64%, the “Percent Disease Control, Test A” value [2, 4] was 79% and the “Percent Disease Control, Test C” value [3, 4] was 0%.

With `Cc1cc(C(F)(F)F)nn1CC(=O)N1CCC(c2nc(-c3nc4ccccc4[nH]3)cs2)CC1` [Compound 58] the “Percent Disease Control, Test B” value [1, 4] was 99%, the “Percent Disease Control, Test A” value [2, 4] was 0% and the “Percent Disease Control, Test C” value [3, 4] was 0%.

With `Cc1cc(C(F)(F)F)nn1CC(=O)N1CCC(c2nc(C3=NOC(N4CCOC4=O)C3)cs2)CC1` (stereo not shown) [Compound 213] the “Percent Disease Control, Test B” value ([1]; * tested at 40 ppm) was 100%, the “Percent Disease Control, Test A” value ([2]; * tested at 40 ppm) was 94% and the “Percent Disease Control, Test C” value ([3]; * tested at 40 ppm) was 98%.

For `Cc1ccccc1[C@H]1CC(c2csc(C3CCN(C(=O)Cn4nc(C(F)(F)F)cc4C)CC3)n2)=NO1` [Compound 161, 1-[4-[4-[(5R)-4,5-dihydro-5-(2-methylphenyl)-3-isoxazolyl]-2-thiazolyl]-1-piperidinyl]-2-[5-methyl-3-(trifluoromethyl)-1H-pyrazol-1-yl]ethanone], the pest or weed control at 40 ppm ([1]; Phytophthora infestans, 144 h, read-out: Percent Disease Control, Test B) was 100%, the pest or weed control at 40 ppm ([2]; Plasmopara, 144 h, * tested at 40 ppm, read-out: Percent Disease Control, Test A) was 100% and the pest or weed control at 40 ppm ([3]; Phytophthora infestans, 96 h, read-out: Percent Disease Control, Test C) was 99%.

With `O=C(Cn1nc(C(F)(F)F)cc1Br)N1CCC(c2nc(C3=NOC(c4ccccc4)C3)cs2)CC1` (stereo not shown) [Compound 126, 2-[5-bromo-3-(trifluoromethyl)-1H-pyrazol-1-yl]-1-[4-[4-(4,5-dihydro-5-phenyl-3-isoxazoly)-2-thiazolyl]-1-piperidinyl]ethanone] the “Percent Disease Control, Test B” value [1, 4] was 100%, the “Percent Disease Control, Test A” value [2, 4] was 100% and the “Percent Disease Control, Test A” value ([2]; compounds without asterisk (application rate not given), 100 = 100% disease control, 0 = no control relative to the controls, listed as 11) was 99%. The “Percent Disease Control, Test C” value [3, 4] was 99%.

`Cc1cc(C(F)(F)F)nn1CC(=O)N1CCC(c2nc(-c3ccc([N+](=O)[O-])cc3)cs2)CC1` [Compound 248] was tested, and the “Percent Disease Control, Test B” value ([1]; * tested at 40 ppm) was 73%, the “Percent Disease Control, Test A” value ([2]; * tested at 40 ppm) was 90% and the “Percent Disease Control, Test C” value ([3]; * tested at 40 ppm) was 26%.

For `Cc1cc(C(F)(F)F)nn1CC(=O)N1CCC(c2nc(C3=NOC(c4ccccc4Br)C3)cs2)CC1` (stereo not shown) [Compound 189], the “Percent Disease Control, Test B” value ([1]; * tested at 40 ppm) was 100%, the “Percent Disease Control, Test A” value ([2]; * tested at 40 ppm) was 100% and the “Percent Disease Control, Test C” value ([3]; * tested at 40 ppm) was 99%.

With `Cc1cc(C(F)(F)F)nn1CC(=O)N1CCC(c2nc(C3=NOC4(CC(=O)N(c5ccccc5)C4=O)C3)cs2)CC1` (stereo not shown) [Compound 252] the “Percent Disease Control, Test B” value ([1]; * tested at 40 ppm) was 91%, the “Percent Disease Control, Test A” value ([2]; * tested at 40 ppm) was 88% and the “Percent Disease Control, Test C” value ([3]; * tested at 40 ppm) was 97%.

In the case of `Cc1cc(C(F)(F)F)nn1CC(=O)N1CCC(c2nc(C3=NOC(n4c(=O)sc5ccc(Cl)cc54)C3)cs2)CC1` (stereo not shown) [Compound 280], the “Percent Disease Control, Test B” value ([1]; ** tested at l0 ppm) is reported as 100%, the “Percent Disease Control, Test A” value ([2]; ** tested at l0 ppm) is reported as 92% and the “Percent Disease Control, Test C” value ([3]; ** tested at l0 ppm) is reported as 98%.

For `CSCC1(c2ccccc2)CC(c2csc(C3CCN(C(=O)Cn4nc(C(F)(F)F)cc4C)CC3)n2)=NO1` (stereo not shown) [Compound 142], the “Percent Disease Control, Test B” value ([1]; * tested at 40 ppm) was 100%, the “Percent Disease Control, Test A” value ([2]; * tested at 40 ppm) was 97% and the “Percent Disease Control, Test C” value ([3]; * tested at 40 ppm) was 98%.

`Cc1cc(C(F)(F)F)nn1CC(=O)N1CCC(c2nc(C3=NCCC(c4ccccc4)O3)cs2)CC1` (stereo not shown) [Compound 48] was tested, and the “Percent Disease Control, Test B” value [1, 4] was 85%, the “Percent Disease Control, Test A” value [2, 4] was 0% and the “Percent Disease Control, Test C” value [3, 4] was 0%.

With `Cc1cc(C(F)(F)F)nn1CC(=O)N1CCC(c2nc(C3=NOC(N4C(=O)c5ccccc5S4(=O)=O)C3)cs2)CC1` (stereo not shown) [Compound 236] the “Percent Disease Control, Test B” value ([1]; * tested at 40 ppm) was 100%, the “Percent Disease Control, Test A” value ([2]; * tested at 40 ppm) was 100% and the “Percent Disease Control, Test C” value ([3]; * tested at 40 ppm) was 100%.

For `Cc1cc(C(F)(F)F)nn1CC(=O)N1CCC(c2nc(C3=NOC4(CCN(C(=O)OC(C)(C)C)CC4)C3)cs2)CC1` [Compound 194], the “Percent Disease Control, Test B” value ([1]; * tested at 40 ppm) was 100%, the “Percent Disease Control, Test A” value ([2]; * tested at 40 ppm) was 94% and the “Percent Disease Control, Test C” value ([3]; * tested at 40 ppm) was 99%.

With `Cc1cc(C(F)(F)F)nn1CC(=O)N1CCC(c2nc(-c3nnc(-c4ccccc4)o3)cs2)CC1` [Compound 40] the “Percent Disease Control, Test B” value [1, 4] was 100%, the “Percent Disease Control, Test A” value [2, 4] was 47% and the “Percent Disease Control, Test C” value [3, 4] was 99%.

`Cc1cc(C(F)(F)F)nn1CC(=O)N1CCC(c2nc(-c3ccc(-c4ccccc4)o3)cs2)CC1` [Compound 83] was tested, and the “Percent Disease Control, Test B” value [1, 4] was 92%, the “Percent Disease Control, Test A” value [2, 4] was 46% and the “Percent Disease Control, Test C” value [3, 4] was 0%.

In the case of `CC(=O)Oc1ccccc1C1CC(c2csc(C3CCN(C(=O)Cn4nc(C(F)(F)F)cc4C)CC3)n2)=NO1` (stereo not shown) [Compound 263], the “Percent Disease Control, Test B” value ([1]; * tested at 40 ppm) is reported as 84%, the “Percent Disease Control, Test A” value ([2]; * tested at 40 ppm) is reported as 99% and the “Percent Disease Control, Test C” value ([3]; * tested at 40 ppm) is reported as 83%.

For `Cc1ccc(-n2cc(-c3csc(C4CCN(C(=O)Cn5nc(C(F)(F)F)cc5C)CC4)n3)nn2)cc1` [Compound 77], the “Percent Disease Control, Test B” value [1, 4] was 100%, the “Percent Disease Control, Test A” value [2, 4] was 87% and the “Percent Disease Control, Test C” value [3, 4] was 99%.

For `Cc1cc(C(F)(F)F)nn1CC(=O)N1CCC(c2nc(C3=NOC(OC(C)(C)C)C3)cs2)CC1` (stereo not shown) [Compound 211], the “Percent Disease Control, Test B” value ([1]; * tested at 40 ppm) was 100%, the “Percent Disease Control, Test A” value ([2]; * tested at 40 ppm) was 100% and the “Percent Disease Control, Test C” value ([3]; * tested at 40 ppm) was 99%.
